For this test, the target named is human Nav1.8 (Homo sapiens, UniProt Q9Y5Y9). The test is described as follows: SyncroPatch384PE assay (automated patch clamp). It is filed as cell-based. The note with it: human Nav1.8/b3 CHO cells. A general note: Patch clamp records ionic current or voltage across a cell membrane.
Where [1] appears, read: inactivated state block (P2 measurement), read-out: P2 IC50.
Setting [2] is: resting state block (P1 measurement), read-out: P1 IC50.

Where a name gives a salt, the structure may show the parent alone. Read-outs that look alike come from different tables or passages of the source.

human Nav1.8, sequence (Q9Y5Y9 whole entry): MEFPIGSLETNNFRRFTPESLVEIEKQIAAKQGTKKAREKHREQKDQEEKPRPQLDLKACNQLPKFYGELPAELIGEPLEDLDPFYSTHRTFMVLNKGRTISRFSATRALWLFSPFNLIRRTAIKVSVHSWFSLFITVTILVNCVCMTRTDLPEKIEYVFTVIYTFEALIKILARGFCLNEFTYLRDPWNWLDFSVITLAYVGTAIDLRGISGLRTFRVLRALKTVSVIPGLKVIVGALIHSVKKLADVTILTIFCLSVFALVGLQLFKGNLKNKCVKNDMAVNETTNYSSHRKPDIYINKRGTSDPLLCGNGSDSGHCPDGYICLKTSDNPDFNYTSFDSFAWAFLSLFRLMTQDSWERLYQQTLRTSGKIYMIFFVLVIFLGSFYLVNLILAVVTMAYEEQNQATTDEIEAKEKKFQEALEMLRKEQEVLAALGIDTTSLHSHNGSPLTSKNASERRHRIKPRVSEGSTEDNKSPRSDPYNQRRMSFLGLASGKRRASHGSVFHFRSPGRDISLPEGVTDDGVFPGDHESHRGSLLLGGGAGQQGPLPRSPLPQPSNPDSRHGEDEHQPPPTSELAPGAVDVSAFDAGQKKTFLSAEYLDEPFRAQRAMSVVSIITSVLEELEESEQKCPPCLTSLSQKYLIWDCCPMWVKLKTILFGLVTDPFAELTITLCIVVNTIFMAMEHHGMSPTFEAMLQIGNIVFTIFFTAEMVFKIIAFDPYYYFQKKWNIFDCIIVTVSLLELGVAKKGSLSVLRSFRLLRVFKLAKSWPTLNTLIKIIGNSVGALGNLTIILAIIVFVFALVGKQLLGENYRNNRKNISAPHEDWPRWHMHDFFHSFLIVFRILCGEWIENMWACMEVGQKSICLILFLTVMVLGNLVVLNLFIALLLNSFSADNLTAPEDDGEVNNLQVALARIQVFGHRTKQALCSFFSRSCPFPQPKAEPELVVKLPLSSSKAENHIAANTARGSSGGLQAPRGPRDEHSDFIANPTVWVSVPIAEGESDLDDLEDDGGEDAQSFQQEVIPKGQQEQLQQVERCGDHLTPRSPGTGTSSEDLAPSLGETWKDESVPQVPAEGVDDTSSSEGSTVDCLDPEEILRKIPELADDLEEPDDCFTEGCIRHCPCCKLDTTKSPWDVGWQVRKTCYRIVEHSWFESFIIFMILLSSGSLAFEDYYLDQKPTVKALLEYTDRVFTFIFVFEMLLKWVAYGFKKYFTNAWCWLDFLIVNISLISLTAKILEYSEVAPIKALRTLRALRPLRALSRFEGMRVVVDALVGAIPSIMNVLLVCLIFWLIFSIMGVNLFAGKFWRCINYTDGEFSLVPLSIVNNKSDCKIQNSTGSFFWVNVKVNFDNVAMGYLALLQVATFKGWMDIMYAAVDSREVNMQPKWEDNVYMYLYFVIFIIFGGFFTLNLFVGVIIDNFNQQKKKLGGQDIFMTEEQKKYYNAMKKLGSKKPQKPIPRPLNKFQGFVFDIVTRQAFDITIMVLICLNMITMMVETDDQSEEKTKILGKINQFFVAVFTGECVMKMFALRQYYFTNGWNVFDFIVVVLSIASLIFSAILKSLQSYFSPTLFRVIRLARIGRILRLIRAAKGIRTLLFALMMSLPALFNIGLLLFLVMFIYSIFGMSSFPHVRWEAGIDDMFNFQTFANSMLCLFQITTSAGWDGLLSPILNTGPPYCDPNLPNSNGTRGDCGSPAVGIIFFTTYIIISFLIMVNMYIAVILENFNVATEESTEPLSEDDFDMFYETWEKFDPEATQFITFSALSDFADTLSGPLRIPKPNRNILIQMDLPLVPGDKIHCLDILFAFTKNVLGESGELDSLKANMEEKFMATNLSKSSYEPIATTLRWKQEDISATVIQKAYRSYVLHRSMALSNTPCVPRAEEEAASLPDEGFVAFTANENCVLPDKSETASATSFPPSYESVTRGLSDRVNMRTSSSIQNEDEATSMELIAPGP

Turning to `Cc1nc(N2CCOCC2)nc(N2CCCC(F)(F)CC2)c1C(=O)Nc1cccc([S@](C)(=N)=O)c1` [Example 155, (R)-4-(4,4-difluoroazepan-1-yl)-6-methyl-N-(3-(S-methylsulfonimidoyl)phenyl)-2-morpholinopyrimidine-5-carboxamide], the half-inhibitory concentration (IC50) (commonly the concentration that inhibits the measured activity by half) under setting [1] is greater than 200 nM and the IC50 under setting [2] is greater than 200 nM.
`Cc1c(C(F)(F)F)cnc(N2CCCC(F)(F)CC2)c1C(=O)Nc1cccc([S@@](C)(=N)=O)c1` [Example 163, (S)-2-(4,4-difluoroazepan-1-yl)-4-methyl-N-(3-(S-methylsulfonimidoyl)phenyl)-5-(trifluoromethyl)nicotinamide]: the IC50 by setting is: under setting [1], no more than 5 nM; under setting [2], no more than 5 nM.
On to `Cc1c(Br)c(C(F)(F)F)nc(N2CCCC(F)(F)CC2)c1C(=O)Nc1cccc([S@](C)(=N)=O)c1` [Example 130, (R)-5-bromo-2-(4,4-difluoroazepan-1-yl)-4-methyl-N-(3-(S-methylsulfonimidoyl)phenyl)-6-(trifluoromethyl)nicotinamide], for which the IC50 was no more than 5 nM under setting [1] and no more than 5 nM under setting [2].
With `Cc1nc(N2CCCC(F)(F)CC2)c(C(=O)Nc2cccc([S@](C)(=N)=O)c2)cc1Cl` [Example 16, (R)-5-chloro-2-(4,4-difluoroazepan-1-yl)-6-methyl-N-(3-(S-methylsulfonimidoyl)phenyl)nicotinamide], the IC50 is no more than 5 nM under setting [1] and no more than 5 nM under setting [2].
`Cc1c(C(F)(F)F)nnc(N2CCCC(F)(F)CC2)c1C(=O)Nc1cccc([S@@](C)(=O)=NC(=O)C(C)(C)N)c1` [Example 235, (R)-N-(3-(N-(2-amino-2-methylpropanoyl)-S-methylsulfonimidoyl)phenyl)-3-(4,4-difluoroazepan-1-yl)-5-methyl-6-(trifluoromethyl)pyridazine-4-carboxamide]: the IC50 under setting [1] is no more than 5 nM and the IC50 under setting [2] was no more than 5 nM.
With `Cc1c(-c2cccc(C#N)c2)cnc(N2CCCC(F)(F)CC2)c1C(=O)Nc1cccc(S(C)(=N)=O)c1` (stereo not drawn) [Example 91, 5-(3-cyanophenyl)-2-(4,4-difluoroazepan-1-yl)-4-methyl-N-(3-(S-methylsulfonimidoyl)phenyl)nicotinamide], the IC50 lay in the range of 5 to 50 nM under setting [1] and 5 to 50 nM under setting [2].
`Cc1nc(N2CCCC(F)(F)CC2)c(C(=O)Nc2cccc([S@@](C)(=N)=O)c2)cc1C(F)(F)F` [Example 5, (S)-2-(4,4-Difluoroazepan-1-yl)-6-methyl-N-(3-(S-methylsulfonimidoyl)phenyl)-5-(trifluoromethyl)nicotinamide]: the IC50 reads like this: under setting [1], no more than 5 nM; under setting [2], no more than 5 nM.
In the case of `Cc1c(C(F)(F)F)nnc(N2CCCC(F)(F)CC2)c1C(=O)Nc1cccc([S@@](C)(=O)=NC(=O)[C@H](C)O)c1` [Example 233, 3-(4,4-difluoroazepan-1-yl)-N-(3-((R)-N-((S)-2-hydroxypropanoyl)-S-methylsulfonimidoyl)phenyl)-5-methyl-6-(trifluoromethyl)pyridazine-4-carboxamide], the IC50 under setting [1] is no more than 5 nM and the IC50 under setting [2] is no more than 5 nM.
Consider `Cc1nc(N2CCN(C)CC2)nc(N2CCCC(F)(F)CC2)c1C(=O)Nc1cccc([S@](C)(=N)=O)c1` [Example 157, (R)-4-(4,4-difluoroazepan-1-yl)-6-methyl-2-(4-methylpiperazin-1-yl)-N-(3-(S-methylsulfonimidoyl)phenyl)pyrimidine-5-carboxamide], for which the IC50 by setting is: under setting [1], greater than 200 nM; under setting [2], greater than 200 nM.
For the molecule `Cc1c(-c2cnn(C)c2)cnc(N2CCCC(F)(F)CC2)c1C(=O)Nc1cccc([S@@](C)(=O)=NCCN)c1` [Example 210, (R)-N-(3-(N-(2-aminoethyl)-S-methylsulfonimidoyl)phenyl)-2-(4,4-difluoroazepan-1-yl)-4-methyl-5-(1-methyl-1H-pyrazol-4-yl)nicotinamide 2,2,2-trifluoroacetate], the concentration for half-maximal inhibition (IC50) reads like this: under setting [1], 5 to 50 nM; under setting [2], 5 to 50 nM.
In the case of `Cc1nc(N2CCC3(CC2)CC3)c(C(=O)Nc2cccc([S@](C)(=N)=O)c2)cc1Cl` [Example 26, (R)-5-Chloro-6-methyl-N-(3-(S-methylsulfonimidoyl)phenyl)-2-(6-azaspiro[2.5]octan-6-yl)nicotinamide], the IC50 under setting [1] is no more than 5 nM and the IC50 under setting [2] was no more than 5 nM.
`C[S@@](=N)(=O)c1cc(NC(=O)c2cc(Cl)c(C(F)(F)F)cc2N2CCCC(F)(F)CC2)ccn1` [Example 199, (R)-5-chloro-2-(4,4-difluoroazepan-1-yl)-N-(2-(S-methylsulfonimidoyl)pyridin-4-yl)-4-(trifluoromethyl)benzamide]: the IC50 is, setting by setting: under setting [1], no more than 5 nM; under setting [2], no more than 5 nM.
On to `Cc1c(C#CCN(C)C)cnc(N2CCCC(F)(F)CC2)c1C(=O)Nc1cccc([S@](C)(=N)=O)c1` [Example 124, (R)-2-(4,4-difluoroazepan-1-yl)-5-(3-(dimethylamino)prop-1-yn-1-yl)-4-methyl-N-(3-(S-methylsulfonimidoyl)phenyl)nicotinamide], for which the IC50 is, setting by setting: under setting [1], 100 to 200 nM; under setting [2], 100 to 200 nM.
With `Cc1c(Cl)c(C(F)(F)F)nc(N2CCCC(F)(F)CC2)c1C(=O)Nc1cccc([S@](C)(=N)=O)c1` [Example 109, (R)-5-chloro-2-(4,4-difluoroazepan-1-yl)-4-methyl-N-(3-(S-methylsulfonimidoyl)phenyl)-6-(trifluoromethyl)nicotinamide], the IC50 runs as follows: under setting [1], no more than 5 nM; under setting [2], no more than 5 nM.
With `Cc1c(-c2ccc(Cl)c(F)c2)cnc(N2CCCC(F)(F)CC2)c1C(=O)Nc1cccc([S@](C)(=N)=O)c1` [Example 166, (R)-5-(4-chloro-3-fluorophenyl)-2-(4,4-difluoroazepan-1-yl)-4-methyl-N-(3-(S-methylsulfonimidoyl)phenyl)nicotinamide], the IC50 was no more than 5 nM under setting [1] and no more than 5 nM under setting [2].
Turning to `Cc1c(C#N)c(C(F)(F)F)nc(N2CCCC(F)(F)CC2)c1C(=O)Nc1cccc([S@@](C)(=O)=NC(=O)C2CNC2)c1` [Example 57, (R)-N-(3-(N-(azetidine-3-carbonyl)-S-methylsulfonimidoyl)phenyl)-5-cyano-2-(4,4-difluoroazepan-1-yl)-4-methyl-6-(trifluoromethyl)nicotinamide formate], the IC50 by setting is: under setting [1], no more than 5 nM; under setting [2], no more than 5 nM.
Turning to `Cc1c(C(F)(F)F)cnc(N2CCCC(F)(F)CC2)c1C(=O)Nc1ccnc([S@](C)(=N)=O)c1` (single isomer, unassigned) [Example 189], the concentration for half-maximal inhibition (IC50) was no more than 5 nM under setting [1] and no more than 5 nM under setting [2].
As to `Cc1c(Br)cnc(N2CCCC(F)(F)CC2)c1C(=O)Nc1cccc([S@@](C)(=O)=NCCN)c1` [Example 209, (R)-N-(3-(N-(2-aminoethyl)-S-methylsulfonimidoyl)phenyl)-5-bromo-2-(4,4-difluoroazepan-1-yl)-4-methylnicotinamide 2,2,2-trifluoroacetate], the IC50 reads like this: under setting [1], no more than 5 nM; under setting [2], no more than 5 nM.
With `Cc1c(-c2cccc(F)c2)cnc(N2CCCC(F)(F)CC2)c1C(=O)Nc1cccc([S@](C)(=N)=O)c1` [Example 110, (R)-2-(4,4-difluoroazepan-1-yl)-5-(3-fluorophenyl)-4-methyl-N-(3-(S-methylsulfonimidoyl)phenyl)nicotinamide], the IC50 is, setting by setting: under setting [1], no more than 5 nM; under setting [2], no more than 5 nM.
Regarding `Cc1c(-c2ccc(C#N)cc2)cnc(N2CCCC(F)(F)CC2)c1C(=O)Nc1cccc([S@](C)(=N)=O)c1` [Example 49, (R)-5-(4-cyanophenyl)-2-(4,4-difluoroazepan-1-yl)-4-methyl-N-(3-(S-methylsulfonimidoyl)phenyl)nicotinamide], the IC50 under setting [1] is no more than 5 nM and the IC50 under setting [2] was no more than 5 nM.
Take `Cc1c(C(F)(F)F)nnc(N2CCCC(F)(F)CC2)c1C(=O)Nc1cccc(S(C)(=N)=N)c1` [Example 120, 3-(4,4-difluoroazepan-1-yl)-N-{3-[diimino(methyl)-λ^6-sulfanyl]phenyl}-5-methyl-6-(trifluoromethyl)pyridazine-4-carboxamide]: the IC50 lay in the range of 50 to 100 nM under setting [1] and 100 to 200 nM under setting [2].
On the same counts, the results for `Cc1c(Br)cnc(N2CCCC(F)(F)CC2)c1C(=O)Nc1cccc([S@@](C)(=N)=O)c1` [Example 145, (S)-5-bromo-2-(4,4-difluoroazepan-1-yl)-4-methyl-N-(3-(S-methylsulfonimidoyl)phenyl)nicotinamide] are no more than 5 nM and no more than 5 nM.
For `Cc1c(-c2cnn(C)c2)cnc(N2CCCC(F)(F)CC2)c1C(=O)Nc1cccc(S(=N)(N)=O)c1` (stereo not drawn) [Example 165, 2-(4,4-difluoroazepan-1-yl)-4-methyl-5-(1-methyl-1H-pyrazol-4-yl)-N-(3-sulfamidimidoylphenyl)nicotinamide], in that order: 5 to 50 nM and 5 to 50 nM.
For `Cc1c(-c2cnco2)cnc(N2CCCC(F)(F)CC2)c1C(=O)Nc1cccc([S@](C)(=N)=O)c1` [Example 147, (R)-2-(4,4-difluoroazepan-1-yl)-4-methyl-N-(3-(S-methylsulfonimidoyl)phenyl)-5-(oxazol-5-yl)nicotinamide], in that order: 5 to 50 nM and 5 to 50 nM.
Regarding `Cc1nc(N2CCCC(F)(F)CC2)c(C(=O)Nc2cccc(S(C)(=N)=O)c2)cc1Cl` (stereo not drawn) [Example 15, 5-chloro-2-(4,4-difluoroazepan-1-yl)-6-methyl-N-(3-(S-methylsulfonimidoyl)phenyl)nicotinamide], the IC50 is no more than 5 nM under setting [1] and no more than 5 nM under setting [2].
With `Cc1c(C(F)(F)F)nnc(N2CCCC(F)(F)CC2)c1C(=O)Nc1cccc([S@@](C)(=O)=NC(=O)CO)c1` [Example 232, (R)-3-(4,4-difluoroazepan-1-yl)-N-(3-(N-(2-hydroxyacetyl)-S-methylsulfonimidoyl)phenyl)-5-methyl-6-(trifluoromethyl)pyridazine-4-carboxamide], the IC50 is, setting by setting: under setting [1], no more than 5 nM; under setting [2], no more than 5 nM.
Consider `Cc1c(C#N)cnc(N2CCCC(F)(F)CC2)c1C(=O)Nc1ccnc([S@](C)(=N)=O)c1` [Example 201, (R)-5-cyano-2-(4,4-difluoroazepan-1-yl)-4-methyl-N-(2-(S-methylsulfonimidoyl)pyridin-4-yl)nicotinamide], for which the IC50 by setting is: under setting [1], 5 to 50 nM; under setting [2], 5 to 50 nM.

The record behind these values is patent US20250154109A1, “SODIUM CHANNEL BLOCKING COMPOUNDS, DERIVATIVES THEREOF, AND METHODS OF THEIR USE” (LATIGO BIOTHERAPEUTICS, INC, priority 2022, published 2025).
